The source of these data is patent US20090325964A1, “Piperazine Metabotropic Glutamate Receptor 5 (MGLUR5) Negative Allosteric Modulators For Anxiety/Depression” (Wyeth, priority 2008, published 2009).

In general, IC50 refers to the concentration needed to halve the response being measured. Higher therefore signals weaker potency. In general, Ki refers to a measure of affinity in units of concentration, obtained from inhibition or displacement.

Experiment [1] deals with mGluR5 (Rattus norvegicus, UniProt P31424). The experiment is described as follows: IC50 column under 'Biological Activity' (assay not identified in the shown text; not the binding Ki).
Experiment [2] addresses T1, rat mGluR5 receptor (Rattus norvegicus, UniProt P31424).
T1 construct: expressed in transfected cells; host or cells: HEK-293
The experiment is described as follows: [3H]-MPEP displacement binding assay, HEK-293 cell membranes expressing rat mGluR5. Particulars: [3H]-MPEP displacement, rat mGluR5; read-out: Median Ki. In short, it runs like this:
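Membranes from HEK-293 cells expressing rat mGluR5 (12-25 μg protein), incubated 60 min at room temperature with 4 nM [3H]-MPEP in 50 mM Tris pH 7.5, then filtered. Nonspecific binding defined with 10 μM MPEP.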

T1 sequence (P31424 21-1203): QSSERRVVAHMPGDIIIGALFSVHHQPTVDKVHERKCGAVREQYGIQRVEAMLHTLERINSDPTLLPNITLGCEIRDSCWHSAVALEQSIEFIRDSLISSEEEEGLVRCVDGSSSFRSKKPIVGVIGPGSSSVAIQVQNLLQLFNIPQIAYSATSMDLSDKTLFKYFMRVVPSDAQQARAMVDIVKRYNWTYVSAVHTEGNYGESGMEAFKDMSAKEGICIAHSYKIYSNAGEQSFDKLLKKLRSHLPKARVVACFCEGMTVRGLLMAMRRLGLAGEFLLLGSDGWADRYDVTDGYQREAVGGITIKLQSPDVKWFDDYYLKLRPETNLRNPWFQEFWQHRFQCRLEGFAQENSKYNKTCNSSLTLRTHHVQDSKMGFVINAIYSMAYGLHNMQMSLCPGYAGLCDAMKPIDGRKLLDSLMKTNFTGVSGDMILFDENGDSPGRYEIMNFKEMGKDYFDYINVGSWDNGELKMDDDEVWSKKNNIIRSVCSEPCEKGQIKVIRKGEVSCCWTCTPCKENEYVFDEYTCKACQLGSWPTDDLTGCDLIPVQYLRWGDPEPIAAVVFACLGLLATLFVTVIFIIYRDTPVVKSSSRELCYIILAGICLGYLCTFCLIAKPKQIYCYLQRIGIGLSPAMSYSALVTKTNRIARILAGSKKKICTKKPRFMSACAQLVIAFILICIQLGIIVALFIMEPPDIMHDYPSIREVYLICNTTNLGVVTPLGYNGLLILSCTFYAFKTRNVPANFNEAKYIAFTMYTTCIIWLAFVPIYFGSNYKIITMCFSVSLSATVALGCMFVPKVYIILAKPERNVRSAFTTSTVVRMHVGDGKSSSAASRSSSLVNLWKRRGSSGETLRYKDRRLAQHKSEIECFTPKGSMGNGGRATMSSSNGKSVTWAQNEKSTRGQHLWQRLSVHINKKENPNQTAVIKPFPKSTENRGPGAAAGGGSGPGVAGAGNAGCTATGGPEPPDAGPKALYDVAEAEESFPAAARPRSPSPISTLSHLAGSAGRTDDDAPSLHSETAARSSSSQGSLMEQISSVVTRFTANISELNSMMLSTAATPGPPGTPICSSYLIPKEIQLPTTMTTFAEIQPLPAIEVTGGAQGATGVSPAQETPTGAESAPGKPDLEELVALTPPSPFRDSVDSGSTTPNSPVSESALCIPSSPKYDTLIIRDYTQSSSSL
mGluR5, sequence (P31424 21-1203): as above

`COc1ccc(C(=O)N2CCN(S(=O)(=O)c3ccc(Cl)cc3)CC2)cc1C#Cc1ccccn1` [Compound 243, 1-[(4-chlorophenyl)sulfonyl]-4-[4-methoxy-3-(pyridin-2-ylethynyl)benzoyl]piperazine] yielded an IC50 in experiment [1] of 0.154 µM. Further, the inhibition constant (Ki) in experiment [2] turned out to be 0.014 µM.
In experiment [1], `COc1ccc(C(=O)N2CCN(c3ccc([N+](=O)[O-])cn3)CC2)cc1C#Cc1ccccn1` [Compound 229, 1-[4-methoxy-3-(pyridin-2-ylethynyl)benzoyl]-4-(5-nitropyridin-2-yl)piperazine] yielded an IC50 above 1 µM. In addition, the Ki in experiment [2] was 0.056 µM.
On to `O=C(c1ccc(OC(F)(F)F)c(C#Cc2ccccn2)c1)N1CCN(c2ccccn2)CC1` [Compound 340, 1-Pyridin-2-yl-4-{[3-(pyridin-2-ylethynyl)-4-(trifluoromethoxy)phenyl]carbonyl}piperazine], for which, in experiment [1], the IC50 was 0.007 µM. Also, the Ki in experiment [2] amounted to 0.002 µM.
Take `COc1cccc(N2CCN(C(=O)c3ccc(OC)c(C#Cc4ccccn4)c3)CC2)n1` [Compound 213, 1-(6-methoxypyridin-2-yl)-4-[4-methoxy-3-(pyridin-2-ylethynyl)benzoyl]piperazine]: the IC50 in experiment [1] is 0.086 µM. For the same compound, in experiment [2], the Ki amounted to 0.011 µM.
The compound `COc1ccc(C(=O)N2C[C@@H]3C[C@@H]2CN3c2ccc(C)cc2)cc1C#Cc1ccccn1` [Compound 226, (1R,4S)-2-[4-methoxy-3-(pyridin-2-ylethynyl)benzoyl]-5-(4-methylphenyl)-2,5-diazabicyclo[2.2.1]heptane] gave an IC50 in experiment [1] above 1 µM. The Ki in experiment [2] came out at 0.277 µM.
Regarding `O=C(c1ccc(OC(F)(F)F)c(C#Cc2ccccn2)c1)N1CCN(c2cnccn2)CC1` [Compound 335, 2-{4-[3-(pyridin-2-ylethynyl)-4-(trifluoromethoxy)benzoyl]piperazin-1-yl}pyrazine], the IC50 in experiment [1] was determined as 0.273 µM. The inhibition constant (Ki) in experiment [2] amounted to 0.176 µM.
The compound `O=C(c1ccc(OCC2CC2)c(C#Cc2ccccn2)c1)N1CCN(c2noc3ccccc23)CC1` [Compound 324, 3-(4-{[4-(cyclopropylmethoxy)-3-(pyridin-2-ylethynyl)phenyl]carbonyl}piperazin-1-yl)-1,2-benzisoxazole] returned an IC50 in experiment [1] of 0.078 µM. Besides, the Ki in experiment [2] came out at 0.005 µM.
Take `COc1ccc(C(=O)N2CCN(c3nc(C)cc(C)n3)CC2)cc1C#Cc1ccccn1` [Compound 192, 2-{4-[4-methoxy-3-(pyridin-2-ylethynyl)benzoyl]piperazin-1-yl}-4,6-dimethylpyrimidine]: the IC50 in experiment [1] came out at 0.109 µM. Also, in experiment [2], the Ki is 0.045 µM.
In experiment [1], `COc1ccc(C(=O)N2CCN(Cc3cccc(F)c3)CC2)cc1C#Cc1ccccn1` [Compound 267, 1-(3-fluorobenzyl)-4-[4-methoxy-3-(pyridin-2-ylethynyl)benzoyl]piperazine] showed an IC50 of 0.167 µM. Besides, in experiment [2], the Ki worked out at 0.057 µM.
In experiment [1], `COc1ccc(C(=O)N2CCN(S(=O)(=O)c3ccc4ccccc4c3)CC2)cc1C#Cc1ccccn1` [Compound 287, 1-[4-methoxy-3-(pyridin-2-ylethynyl)benzoyl]-4-(2-naphthylsulfonyl)piperazine] showed an IC50 above 1000 µM. In experiment [2], the Ki came out at 0.07 µM.
The matching figures for `COc1ccc(C(=O)N2CCN(Cc3ccc(F)cc3)CC2)cc1C#Cc1ccccn1` [Compound 268, 1-(4-fluorobenzyl)-4-[4-methoxy-3-(pyridin-2-ylethynyl)benzoyl]piperazine]: 0.219 µM and 0.057 µM.
Turning to `COc1ccc(C(=O)N2CCN(c3cc(C)ccn3)CC2)cc1C#Cc1ccccn1` [Compound 191, 1-[4-methoxy-3-(pyridin-2-ylethynyl)benzoyl]-4-(4-methylpyridin-2-yl)piperazine], the IC50 in experiment [1] came out at 0.031 µM. In addition, the Ki in experiment [2] stood at 0.019 µM.
`COc1ccc(C(=O)N2CCN(c3nccnc3C#N)CC2)cc1C#Cc1ccccn1` [Compound 193, 3-{4-[4-methoxy-3-(pyridin-2-ylethynyl)benzoyl]piperazin-1-yl}pyrazine-2-carbonitrile] displayed an IC50 in experiment [1] of 0.046 µM. In addition, the Ki in experiment [2] is 0.034 µM.
In experiment [1], `COc1ccc(C(=O)N2CCN(c3ncc(F)c(N)n3)CC2)cc1C#Cc1ccccn1` [Compound 300, 5-fluoro-2-{4-[4-methoxy-3-(pyridin-2-ylethynyl)benzoyl]piperazin-1-yl}pyrimidin-4-amine] had an IC50 of 0.198 µM. Moreover, in experiment [2], the Ki came to 0.03 µM.
`COc1cccc(N2CCN(C(=O)c3ccc(OC)c(C#Cc4ccccn4)c3)CC2)c1` [Compound 241, 1-(3-methoxyphenyl)-4-[4-methoxy-3-(pyridin-2-ylethynyl)benzoyl]piperazine] came in with an IC50 in experiment [1] of 0.081 µM. Moreover, the Ki in experiment [2] amounted to 0.015 µM.
As to `COc1ccc(C(=O)N2CCN(c3cccc(O)c3)CC2)cc1C#Cc1ccccn1` [Compound 195, 3-{4-[4-methoxy-3-(pyridin-2-ylethynyl)benzoyl]piperazin-1-yl}phenol], in experiment [1], the IC50 is 0.702 µM. Besides, the inhibition constant Ki in experiment [2] is 0.026 µM.
`O=C(c1ccc(F)c(C#Cc2ccccn2)c1)N1CCN(c2noc3ccccc23)CC1` [Compound 316, 3-{4-[4-fluoro-3-(pyridin-2-ylethynyl)benzoyl]piperazin-1-yl}-1,2-benzisoxazole] yielded an IC50 in experiment [1] of 0.024 µM. For the same compound, the Ki in experiment [2] came to 0.002 µM.
As for `COc1ccc(C(=O)N2CCN(c3ncccn3)CC2)cc1C#Cc1cccc(C#N)c1` [Compound 361, 3-({2-methoxy-5-[(4-pyrimidin-2-ylpiperazin-1-yl)carbonyl]phenyl}ethynyl)benzonitrile], in experiment [1], the IC50 worked out at 0.056 µM. The Ki in experiment [2] stood at 0.064 µM.
In the case of `COc1ccc(C(=O)N2CCN(c3ccc(F)cc3)CC2)cc1C#Cc1ccccn1` [Compound 231, 1-(4-fluorophenyl)-4-[4-methoxy-3-(pyridin-2-ylethynyl)benzoyl]piperazine], the IC50 in experiment [1] is 0.244 µM. Besides, the Ki in experiment [2] is 0.023 µM.
On the same counts, the results for `COc1ccc(C(=O)N2CCCN(c3ccccn3)CC2)cc1C#Cc1ccccn1` [Compound 205, 1-[4-methoxy-3-(pyridin-2-ylethynyl)benzoyl]-4-pyridin-2-yl-1,4-diazepane] are above 1 µM and 0.131 µM.
The compound `COc1ccnc(N2CCN(C(=O)c3ccc(C)c(C#Cc4ccccn4)c3)CC2)n1` [Compound 308, 4-Methoxy-2-{4-[4-methyl-3-(pyridin-2-ylethynyl)benzoyl]piperazin-1-yl}pyrimidine] returned an IC50 in experiment [1] of 0.107 µM. In addition, the Ki in experiment [2] was determined as 0.008 µM.
In experiment [1], `COc1ccc(C(=O)N2CCN(c3nnc(Cl)c4ccccc34)CC2)cc1C#Cc1ccccn1` [Compound 306, 1-chloro-4-{4-[4-methoxy-3-(pyridin-2-ylethynyl)benzoyl]piperazin-1-yl}phthalazine] had an IC50 of 0.356 µM. Further, the Ki in experiment [2] worked out at 0.072 µM.
On the same counts, the results for `COc1ccc(C(=O)N2CCN(C(=O)C3CC3)CC2)cc1C#Cc1ccccn1` [Compound 248, 1-(cyclopropylcarbonyl)-4-[4-methoxy-3-(pyridin-2-ylethynyl)benzoyl]piperazine] are above 1 µM and 0.083 µM.
In the case of `COc1ccc(C(=O)N2CCN(c3ccc(C(F)(F)F)cn3)CC2)cc1C#Cc1ccccn1` [Compound 183, 1-[4-methoxy-3-(pyridin-2-ylethynyl)benzoyl]-4-[5-(trifluoromethyl)pyridin-2-yl]piperazine], the IC50 in experiment [1] was determined as 0.066 µM. In addition, the Ki in experiment [2] was found to be 0.041 µM.
`COc1ccc(C(=O)N2CCN(c3cccc(C(F)(F)F)c3)CC2)cc1C#Cc1ccccn1` [Compound 187, 1-[4-methoxy-3-(pyridin-2-ylethynyl)benzoyl]-4-[3-(trifluoromethyl)phenyl]piperazine] had an IC50 in experiment [1] of 0.834 µM. The Ki in experiment [2] worked out at 0.005 µM.
In turn, `COc1ccc(C(=O)N2CCN(Cc3ccc(Cl)cc3Cl)CC2)cc1C#Cc1ccccn1` [Compound 280, 1-(2,4-dichlorobenzyl)-4-[4-methoxy-3-(pyridin-2-ylethynyl)benzoyl]piperazine] came in with an IC50 in experiment [1] of 0.317 µM. Besides, the Ki in experiment [2] turned out to be 0.043 µM.
For the compound `CCS(=O)(=O)N1CCN(C(=O)c2ccc(OC)c(C#Cc3ccccn3)c2)CC1` [Compound 245, 1-(ethylsulfonyl)-4-[4-methoxy-3-(pyridin-2-ylethynyl)benzoyl]piperazine], in experiment [1], the IC50 worked out at 0.344 µM. In experiment [2], the Ki turned out to be 0.231 µM.
In experiment [1], `COc1ccc(C(=O)N2CCN(Cc3cccc(Cl)c3)CC2)cc1C#Cc1ccccn1` [Compound 274, 1-(3-chlorobenzyl)-4-[4-methoxy-3-(pyridin-2-ylethynyl)benzoyl]piperazine] displayed an IC50 of 0.316 µM. Besides, in experiment [2], the Ki came to 0.089 µM.
`COc1ccc(C(=O)N2CCN(c3ccccc3)CC2)cc1C#Cc1ccccn1` [Compound 292, 1-[4-methoxy-3-(pyridin-2-ylethynyl)benzoyl]-4-phenylpiperazine] came in with a half-inhibitory concentration (IC50) in experiment [1] of 0.208 µM. For the same compound, the Ki in experiment [2] worked out at 0.014 µM.
With `COc1ccc(C(=O)N2CCN(c3ncccn3)CC2)cc1C#Cc1ccc(F)cc1` [Compound 362, 2-(4-{3-[(4-fluorophenyl)ethynyl]-4-methoxybenzoyl}piperazin-1-yl)pyrimidine], the IC50 in experiment [1] amounted to 1.45 µM. In addition, the inhibitory constant (Ki) in experiment [2] was found to be 0.068 µM.
In experiment [1], `COc1ccc(C(=O)N2C[C@@H]3C[C@@H]2CN3c2ccc(F)cc2)cc1C#Cc1ccccn1` [Compound 227, (1S,4R)-2-(4-fluorophenyl)-5-[4-methoxy-3-(pyridin-2-ylethynyl)benzoyl]-2,5-diazabicyclo[2.2.1]heptane] showed a half-maximal inhibitory concentration (IC50) above 1 µM. Moreover, in experiment [2], the Ki was found to be 0.071 µM.
Compound `CCOc1ccc(C(=O)N2CCN(c3nccc(OC)n3)CC2)cc1C#Cc1ccccn1` [Compound 320, 2-{4-[4-ethoxy-3-(pyridin-2-ylethynyl)benzoyl]piperazin-1-yl}-4-methoxypyrimidine] gave an IC50 in experiment [1] of 0.031 µM. Also, the Ki in experiment [2] stood at 0.02 µM.
`CCOc1ccc(C(=O)N2CCN(c3ccccn3)CC2)cc1C#Cc1ccccn1` [Compound 318, 1-[4-ethoxy-3-(pyridin-2-ylethynyl)benzoyl]-4-pyridin-2-ylpiperazine] returned an IC50 in experiment [1] of 0.019 µM. For the same compound, the Ki in experiment [2] was found to be 0.018 µM.
